Results as given in patent US20260217732A1, “WRN INHIBITOR” (SUZHOU PUHE BIOPHARMA CO., LTD., priority 2022, published 2026).
Read-outs that look alike come from different tables or passages of the source. One block for each compound: values may come before it.

How the values were obtained:
[1] = system: SW48 colorectal cancer cells; assay: 2D antiproliferation on MSI-H SW48 cells, CTG, 5 days; assay type: cell-based; conditions: for IC50 / inhibition at 38.15 pM / inhibition at 0.000152588 µM / inhibition at 0.000610352 µM / inhibition at 0.00244141 µM / inhibition at 0.00976562 µM / inhibition at 0.0390625 µM / inhibition at 0.15625 µM / inhibition at 0.625 µM / inhibition at […] / inhibition at 10 µM: Homo sapiens; for IC50: 120 h, SW48 MSI-H, 5 days; for inhibition at 38.15 pM: SW48, 0.038146973 nM; for inhibition at 0.000152588 µM: SW48, 0.152587891 nM; for inhibition at 0.000610352 µM: SW48, 0.610351563 nM; for inhibition at 0.00244141 µM: SW48, 2.44140625 nM; for inhibition at 0.00976562 µM: SW48, 9.765625 nM; for inhibition at 0.0390625 µM: SW48, 39.0625 nM; for inhibition at 0.15625 µM: SW48, 156.25 nM; for inhibition at 0.625 µM: SW48, 625 nM; for inhibition at […]: SW48, 2500 nM; for inhibition at 10 µM: SW48, 10000 nM
Method: The molecules of the present disclosure were tested for their anti-proliferative activity on MSI-H tumor cells.
SW48 colorectal cancer cells with MSI were cultured in a RMI1640 medium containing 10% FBS and 1% penicillin-streptomycin, and the mixture was cultured in a 37° C., 5% CO2 incubator. 40 μL of cell suspension was added to each well of a 384-well microplate. […] of compounds with different concentrations were added to each well using Echo, and the mixtures were cultured in a 37° C., 5% CO2 incubator for 5 days. 40 μL of CTG solution (Promega, Cat No. G7573) was added to each well and incubated in a 37° C., 5% CO2 incubator in the dark for 30 minutes. The luminescence value was read using an Envision multi-function microplate reader (Perkin Elmer, catalog number Envision 2104). The optical signal is proportional to the amount of ATP in the system, while the ATP content directly characterizes the number of viable cells in the system.

[2] = system: HT-29 colorectal cancer cells; assay: 2D antiproliferation on MSS HT-29 cells, CTG, 5 days; assay type: cell-based; conditions: Homo sapiens, 120 h, HT-29 MSS
Method: The molecules of the invention were tested for their anti-proliferative activities on MSS tumor cells.
HT-29 colorectal cancer cells with MSS were cultured in a McCoy's 5A medium containing 10% FBS and 1% penicillin-streptomycin in a 37° C., 5% CO2 constant temperature incubator. 40 μL of cell suspension was added to each well of a 384-well microplate. […] of compounds with different concentrations were added to each well using Echo. The mixtures were cultured in a 37° C., 5% CO2 constant temperature incubator for 5 days. 40 μL of CTG solution (Promega, Cat No. G7573) was added to each well, and the mixture was incubated in a 37° C., 5% CO2 constant temperature incubator for 30 minutes in the dark. The luminescence value was read using an Envision multi-function microplate reader (Perkin Elmer, catalog number Envision 2104). The optical signal is proportional to the amount of ATP in the system, while the ATP content directly characterizes the number of viable cells in the system.

[3] = read-out: Average Value/Inhibition Rate
[4] = read-out: Test 1/Inhibition Rate
[5] = read-out: Test 2/Inhibition Rate

Structure (SMILES): CCc1c(N2CCN(C(=O)c3cc(C)ncn3)CC2)c(=O)n2nc(-c3cc4c(s3)COC4)nc2n1CC(=O)Nc1ccc(C(F)(F)F)cc1Cl [A2]
IC50 [1]: 848 nM

Structure (SMILES): CCc1c(N2CCN(C(=O)c3ncnc(C)c3O)CC2)c(=O)n2nc(-c3ccc(=O)n(C)c3)nc2n1CC(=O)Nc1ccc(C(F)(F)F)cc1Cl [A3, reference compound]
IC50 [1]: 2000 nM

Structure (SMILES): CCc1c(N2CCN(C(=O)c3ncccc3O)CC2)c(=O)n2nc(C3=CCS(=O)(=O)CC3)nc2n1CC(=O)Nc1ccc(C(F)(F)F)cc1Cl [P6]
IC50 [1]: 2060 nM
IC50 [2]: > 10000 nM

Structure (SMILES): CCc1c(N2CCN(C(=O)c3ncnc(C)c3O)CC2)c(=O)n2nc(-c3cnc(CO)s3)nc2n1CC(=O)Nc1ccc(C(F)(F)F)c2ccsc12 [P36]
IC50 [1]: 561 nM
IC50 [2]: > 10000 nM

Structure (SMILES): CCc1c(N2CCN(C(=O)c3ncnc(C)c3O)CC2)c(=O)n2nc(-c3ccc4nncn4c3)nc2n1CC(=O)Nc1ccc(C(F)(F)F)cc1Cl [P39]
IC50 [1]: > 10000 nM
IC50 [2]: > 10000 nM

Structure (SMILES): CCc1c(N2CCN(C(=O)c3ncccc3O)CC2)c(=O)n2nc(-c3c[nH]c4ncncc34)nc2n1CC(=O)Nc1ccc(C(F)(F)F)cc1Cl [P41]
IC50 [1]: 2080 nM
IC50 [2]: 5590 nM

Structure (SMILES): CCc1c(N2CCN(C(=O)c3ncnc(C)c3O)CC2)c(=O)n2nc(-c3cc4cncnc4s3)nc2n1CC(=O)Nc1ccc(C(F)(F)F)cc1Cl [P42]
IC50 [1]: 620 nM
IC50 [2]: > 10000 nM

Structure (SMILES): CCc1c(N2CCN(C(=O)c3ncnc(C)c3O)CC2)c(=O)n2nc(-c3ncc(CO)s3)nc2n1CC(=O)Nc1ccc(C(F)(F)F)cc1Cl [P43]
IC50 [1]: 593 nM

Structure (SMILES): CCc1c(N2CCN(C(=O)c3ncnc(C)c3O)CC2)c(=O)n2nc(-c3cc4cncnc4[nH]3)nc2n1CC(=O)Nc1ccc(C(F)(F)F)cc1Cl [P44]
IC50 [1]: > 10000 nM
IC50 [2]: > 10000 nM

Structure (SMILES): CCc1c(N2CCN(C(=O)c3ncnc(C)c3O)CC2)c(=O)n2nc(-c3ccc4nccn4c3)nc2n1CC(=O)Nc1ccc(C(F)(F)F)cc1F [P46]
IC50 [1]: 452 nM
IC50 [2]: > 10000 nM

Structure (SMILES): CCc1c(N2CCN(C(=O)c3ncnc(C)c3O)CC2)c(=O)n2nc(-c3cnn(S(C)(=O)=O)c3)nc2n1CC(=O)Nc1ccc(C(F)(F)F)cc1Cl [P49]
IC50 [1]: 574 nM

Structure (SMILES): CCc1c(N2CC3CC(C2)N3C(=O)c2ncnc(C)c2O)c(=O)n2nc(-c3cc4c(s3)COC4)nc2n1CC(=O)Nc1ccc(C(F)(F)F)cc1C [P54]
IC50 [1]: 2140 nM

Structure (SMILES): CCc1c(N2CCN(C(=O)c3ncnc(C)c3O)C3(CC3)C2)c(=O)n2nc(-c3cc4c(s3)COC4)nc2n1CC(=O)Nc1ccc(C(F)(F)F)cc1C [P55]
IC50 [1]: 672 nM

Structure (SMILES): CCc1c(N2CCN(C(=O)c3ncnc(C)c3O)CC2)c(=O)n2nc(-c3cc4c(s3)COC4)nc2n1CC(=O)Nc1ccc(-c2cccnc2)cc1Cl [P61]
IC50 [1]: 8850 nM

Structure (SMILES): CCc1c(N2CCN(C(=O)c3ncnc(C)c3O)CC2)c(=O)n2nc(-c3cn4cncc4s3)nc2n1CC(=O)Nc1ccc(C(F)(F)F)cc1C [P64]
IC50 [1]: 530 nM

Compounds with a lower IC50 [1], results first:

IC50 [1]: 82 nM
IC50 [2]: > 10000 nM
Structure (SMILES): CCc1c(N2CCN(C(=O)c3ncnc(C)c3O)CC2)c(=O)n2nc(-c3cc4cn[nH]c4s3)nc2n1CC(=O)Nc1ccc(C(F)(F)F)cc1Cl [P19]
inhibitory activity on SW48 cells ([1]; 39 nM): high inhibitory activity
inhibition at 38.15 pM [1, 3]: -0.502%
inhibition at 38.15 pM [1, 4]: 2.13%
inhibition at 38.15 pM [1, 5]: -3.13%
inhibition at 0.000152588 µM [1, 3]: -1.21%
inhibition at 0.000152588 µM [1, 4]: -2.38%
inhibition at 0.000152588 µM [1, 5]: -0.0356%
inhibition at 0.000610352 µM [1, 3]: 2.86%
inhibition at 0.000610352 µM [1, 4]: 3.47%
inhibition at 0.000610352 µM [1, 5]: 2.26%
inhibition at 0.00244141 µM [1, 3]: -3.38%
inhibition at 0.00244141 µM [1, 4]: -2.94%
inhibition at 0.00244141 µM [1, 5]: -3.82%
inhibition at 0.00976562 µM [1, 3]: -3.51%
inhibition at 0.00976562 µM [1, 4]: -1.53%
inhibition at 0.00976562 µM [1, 5]: -5.5%
inhibition at 0.0390625 µM [1, 3]: 1.51%
inhibition at 0.0390625 µM [1, 4]: 3.47%
inhibition at 0.0390625 µM [1, 5]: -0.452%
inhibition at 0.15625 µM [1, 3]: 95.5%
inhibition at 0.15625 µM [1, 4]: 96%
inhibition at 0.15625 µM [1, 5]: 95%
inhibition at 0.625 µM [1, 3]: 97.6%
inhibition at 0.625 µM [1, 4]: 96.9%
inhibition at 0.625 µM [1, 5]: 98.4%
inhibition at […] [1, 3]: 98.6%
inhibition at […] [1, 4]: 99.4%
inhibition at […] [1, 5]: 97.8%
inhibition at 10 µM [1, 3]: 102%
inhibition at 10 µM [1, 4]: 103%
inhibition at 10 µM [1, 5]: 102%

IC50 [1]: 41 nM
IC50 [2]: > 10000 nM
Structure (SMILES): CCc1c(N2CCN(C(=O)c3ncnc(C)c3O)CC2)c(=O)n2nc(-c3cc4c(s3)COC4)nc2n1CC(=O)Nc1ccc(Cl)cc1Cl [P26]

IC50 [1]: 46 nM
IC50 [2]: > 10000 nM
Structure (SMILES): CCc1ccc(NC(=O)Cn2c(CC)c(N3CCN(C(=O)c4ncnc(C)c4O)CC3)c(=O)n3nc(-c4cc5c(s4)COC5)nc23)c(C)c1 [P27]

IC50 [1]: 136 nM
IC50 [2]: > 10000 nM
Structure (SMILES): CCc1c(N2CCN(C(=O)c3ncccc3O)CC2)c(=O)n2nc(-c3cc4c(s3)COC4)nc2n1CC(=O)Nc1ccc(C(F)(F)F)cc1 [P28]

IC50 [1]: 33 nM
IC50 [2]: > 10000 nM
Structure (SMILES): CCc1c(N2CCN(C(=O)c3ncnc(C)c3O)CC2)c(=O)n2nc(-c3cc4c(s3)COC4)nc2n1CC(=O)Nc1ccc(C(F)(F)F)c(F)c1C [P30]

IC50 [1]: 49 nM
IC50 [2]: > 10000 nM
Structure (SMILES): CCc1c(N2CCN(C(=O)c3ncnc(C)c3O)CC2)c(=O)n2nc(-c3cc4c(s3)COC4)nc2n1CC(=O)Nc1cc(F)c(C(F)(F)F)cc1C [P31]

IC50 [1]: 142 nM
IC50 [2]: > 10000 nM
Structure (SMILES): CCc1c(N2CCN(C(=O)c3ncnc(C)c3O)CC2)c(=O)n2nc(-c3sc(CO)nc3C)nc2n1CC(=O)Nc1ccc(C(F)(F)F)cc1Cl [P34]

IC50 [1]: 199 nM
IC50 [2]: > 10000 nM
Structure (SMILES): CCc1c(N2CCN(C(=O)c3ncnc(C)c3O)CC2)c(=O)n2nc(-c3cnc(CO)s3)nc2n1CC(=O)Nc1ccc(C(F)(F)F)cc1Cl [P35]

IC50 [1]: 46 nM
IC50 [2]: > 10000 nM
Structure (SMILES): CCc1c(N2CCN(C(=O)c3ncnc(C)c3O)CC2)c(=O)n2nc(-c3ccn4nccc4c3)nc2n1CC(=O)Nc1ccc(C(F)(F)F)cc1Cl [P37]

IC50 [1]: 82 nM
IC50 [2]: > 10000 nM
Structure (SMILES): CCc1c(N2CCN(C(=O)c3ncnc(C)c3O)CC2)c(=O)n2nc(-c3ccc4nccn4c3)nc2n1CC(=O)Nc1ccc(C(F)(F)F)cc1Cl [P38]

IC50 [1]: 113 nM
Structure (SMILES): CCc1c(N2CCN(C(=O)c3ncnc(C)c3O)CC2)c(=O)n2nc(-c3cc4c(s3)COCC4)nc2n1CC(=O)Nc1ccc(C(F)(F)F)cc1Cl [P40]

IC50 [1]: 54 nM
IC50 [2]: > 10000 nM
Structure (SMILES): CCc1c(N2CCN(C(=O)c3ncnc(C)c3O)CC2)c(=O)n2nc(-c3cc4n(c3)CCOC4)nc2n1CC(=O)Nc1ccc(C(F)(F)F)cc1Cl [P45]

IC50 [1]: 32 nM
Structure (SMILES): CCc1c(N2CCN(C(=O)c3ncnc(C)c3O)CC2)c(=O)n2nc(-c3ccn4nccc4c3)nc2n1CC(=O)Nc1ccc(C(F)(F)F)cc1C [P48]

IC50 [1]: 242 nM
Structure (SMILES): CCc1c(N2CCN(C(=O)c3ncnc(C)c3O)CC2)c(=O)n2nc(-c3cc4cn[nH]c4s3)nc2n1CC(=O)Nc1ccc(C(F)(F)F)cc1F [P51]

IC50 [1]: 36 nM
Structure (SMILES): CCc1c(N2CCN(C(=O)c3ncnc(C)c3O)CC2)c(=O)n2nc(-c3cc4c(s3)COC4)nc2n1CC(=O)Nc1ccc(C(F)(F)F)c2sccc12 [P56]

IC50 [1]: 28 nM
Structure (SMILES): [2H]C([2H])([2H])c1ncnc(C(=O)N2CCN(c3c(CC)n(CC(=O)Nc4ccc(C(F)(F)F)cc4Cl)c4nc(-c5cc6c(s5)COC6)nn4c3=O)CC2)c1O [P68]

IC50 [1]: 34 nM
Structure (SMILES): [2H]C1([2H])N(C(=O)c2ncnc(C)c2O)C([2H])([2H])C([2H])([2H])N(c2c(CC)n(CC(=O)Nc3ccc(C(F)(F)F)cc3C)c3nc(-c4cc5c(s4)COC5)nn3c2=O)C1([2H])[2H] [P70]
